Experiment: xn = mol fraction of the nth substance listed, in the solute-free solvent

c1ccc(-c2ccc(C(c3ccccc3)n3ccnc3)cc2)cc1 (stereo unspecified) + CC(C)O + O
solubility (g/100 g solution)
Conditions | 278.15 K | 283.15 K | 288.15 K | 293.15 K | 298.15 K | 303.15 K | 308.15 K | 313.15 K | 318.15 K
x2 = 0.03225 | 0.0342 | 0.0473 | 0.0644 | 0.0851 | 0.103 | 0.142 | 0.189 | 0.234 | 0.294
x2 = 0.06974 | 0.0839 | 0.115 | 0.155 | 0.204 | 0.247 | 0.338 | 0.444 | 0.549 | 0.687
x2 = 0.1139 | 0.17 | 0.232 | 0.31 | 0.408 | 0.497 | 0.673 | 0.876 | 1.09 | 1.35
x2 = 0.1666 | 0.29 | 0.394 | 0.525 | 0.692 | 0.849 | 1.14 | 1.48 | 1.84 | 2.29
x2 = 0.2307 | 0.426 | 0.578 | 0.767 | 1.05 | 1.37 | 1.77 | 2.24 | 2.81 | 3.38
x2 = 0.3103 | 0.547 | 0.744 | 0.987 | 1.32 | 1.65 | 2.2 | 2.83 | 3.56 | 4.43
x2 = 0.4117 | 0.629 | 0.928 | 1.26 | 1.69 | 2.19 | 2.73 | 3.34 | 4.23 | 5.29
x2 = 0.5454 | 0.662 | 0.935 | 1.36 | 1.8 | 2.39 | 2.97 | 3.63 | 4.64 | 5.84
x2 = 0.7297 | 0.651 | 0.899 | 1.25 | 1.75 | 2.25 | 2.98 | 3.86 | 4.96 | 6.12

CCOc1ccccc1C(N)=O + CCO + CC#N
solubility (g/100 g solution)
Conditions | x2 = 0.1 | x2 = 0.2 | x2 = 0.3 | x2 = 0.4 | x2 = 0.5 | x2 = 0.6 | x2 = 0.7 | x2 = 0.8 | x2 = 0.9
293.15 K | 3.67 | 4.64 | 5.5 | 6.13 | 6.78 | 6.6 | 6.09 | 5.58 | 4.95
298.15 K | 4.87 | 5.98 | 7.15 | 7.99 | 8.56 | 8.45 | 7.95 | 7.21 | 6.29
303.15 K | 6.28 | 7.75 | 8.84 | 9.86 | 10.4 | 10.1 | 9.58 | 8.65 | 7.54
308.15 K | 8.19 | 9.9 | 11.3 | 12.4 | 13.1 | 13 | 12.2 | 11 | 9.7
313.15 K | 10.5 | 12.4 | 14.4 | 15.7 | 16.2 | 16 | 15 | 13.7 | 11.8
318.15 K | 13.3 | 15.6 | 17.7 | 19.2 | 19.9 | 19.5 | 18.3 | 16.5 | 14.7

Cc1ncc(CO)c(CO)c1O.Cl + O + CC(C)O
solubility (g/100 g solution)
Conditions | 278.15 K | 283.15 K | 288.15 K | 293.15 K | 298.15 K | 303.15 K | 308.15 K | 313.15 K
x2 = 0.3 | 0.401 | 0.512 | 0.632 | 0.825 | 1.01 | 1.26 | 1.54 | 1.89
x2 = 0.4 | 0.684 | 0.867 | 1.11 | 1.47 | 1.84 | 2.34 | 2.86 | 3.53
x2 = 0.5 | 1.35 | 1.72 | 2.2 | 2.8 | 3.42 | 4.25 | 5.16 | 6.25
x2 = 0.6 | 2.56 | 3.18 | 3.92 | 4.83 | 5.89 | 7.02 | 8.34 | 9.79
x2 = 0.7 | 3.45 | 4.36 | 5.42 | 6.76 | 8.29 | 10.1 | 12 | 14.3
x2 = 0.8 | 4.83 | 6.11 | 7.62 | 9.29 | 11.3 | 13.4 | 15.8 | 18.8
x2 = 0.9 | 7.31 | 8.78 | 10.7 | 12.7 | 14.4 | 16.6 | 19.7 | 23.9
